Experimental data reported in patent publication US20080081078A1, “Prevention of Cell Proliferation by Inhibiting Myosin Light Chain Kinase” (The Board of Trustees of the University of Illinois, priority 2006, published 2008).
*1 amine or outer side, *2 acyl side, *3 side chain or, on linkers, in order; H or OH if unused. Where a SMILES comes first, the peptide text is derived from it. Bridges are numbered along the chain shown (N, C = ends). Roman numbers before positions name the chains, in order. [ ]: non-standard residue; d: D form. The star is where a group is joined. Actinocin(9to1) = Cc1c2oc3c(C)ccc(C(=O)[*:1])c3nc-2c(C(=O)[*:2])c(N)c1=O; NMeV = CN[C@H](C(=O)O)C(C)C; Cbz = O=C(OCc1ccccc1)*; Sar = CNCC(=O)O; CH2F = FC*

Legend:
MLC20 phosphorylation [1] = experiment: MLC20 phosphorylation by urea gel/Western blotting in smooth muscle cells (SMC); type: cell-based, pig
Description: NIH 3T3 fibroblasts were obtained from ATCC and were grown in Dulbecco's Modified Eagle Medium (DMEM) (Gibco BRL, Gaithersburg, Md.) supplemented with 10% FBS and 1% penicillin and streptomycin in a 37° C. incubator. 3T3 cells were treated with 500 nM actinomycin D in DMEM containing 0.5% FBS without antibiotics for the 0, 2, 4, 8, 16, or 24 hours. Cells were then washed with phosphate buffered saline (PBS). Floating cells were collected by centrifugation and combined with attached cells that were harvested by trypsinization. MLC20 phosphorylation was quantified be Western blotting with an anti-MLC20 antibody (FIG. 1). In short, the harvested cells were treated with ice cold 10% TCA, 10 mM DTT to precipitate the cellular proteins. The pellets were washed with acetone, dissolved in 9 M urea, 10 mM DTT, 20 mM Tris, pH 7.5 and separated using glycerol-urea polyacrylamide gel electrophoresis (PAGE). The proteins were transferred to nitrocellulose, the un-, mono-, and di-phosphorylated forms of MLC20 were identified using an affinity purified antibody to MLC20 and horseradish peroxidase-linked secondary antibody (Jackson ImmunoResearch, West Grove, Pa.). Protein bands were visualized with ECL reagent and the stoichiometry of phosphorylation (mol PO4/mol MLC20) was calculated as described (Obara et al., 1989, “Okadaic acid, a phosphatase inhibitor, produces a Ca2+ and calmodulin-independent contraction of lamb tracheal smooth muscle,” Pfluger's Archiv. 414: 134-138).
(§1) The stoichiometry of MLC20 phosphorylation (FIG. 1B, inset) was quantified using the urea gel/Western blotting method described above in untreated (Un) pig pulmonary artery smooth muscle cells (SMC) and SMC treated with 10 μM dexamethasone (Dex), 10 μM actinomycin D (ActD), 100 μM cycloheximide (Chx), 2 μM camptothecin (Cam), and 100 μM etoposide (Eto) for 24 hrs (mean+/−SE, n=3).
(§2) Next, in order to determine whether MLC-DP can trigger cell death, SMC were treated with ML-7 or KT5926, two inhibitors of MLCK (Nakanishi et al., 1990; Garcia, 1998; and Bain et al., 2003).
(§3) SMC cells were either treated with 10 μM cytochalasin D (CytD) or grown on the non-ionic substrate polyHema to prevent attachment.

[2] = system: pig pulmonary artery smooth muscle cells; experiment: Cell death / apoptosis in smooth muscle cells (SMC); type: cell-based
Description: as §1, §2, §3
SMC were left untreated, treated with ML-7 alone for 16 hours or treated with 50 μM z-VAD-fmk (caspase) for 1 hr followed by 20 μM ML-7 for 16 hours. […] The results represent the mean+/−SE for 3 independent experiments and * indicates a p value <0.05 using a paired T test.

NIH 3T3 cells = experiment: Cell death in NIH 3T3 cells; type: cell-based; conditions: data not shown
MLC20 phosphorylation [3] = experiment: MLC20 phosphorylation by urea gel/Western blotting in NIH 3T3 fibroblasts; type: cell-based; conditions: 500 nM actinomycin D, 0-24 hours
Description: NIH 3T3 fibroblasts were obtained from ATCC and were grown in Dulbecco's Modified Eagle Medium (DMEM) (Gibco BRL, Gaithersburg, Md.) supplemented with 10% FBS and 1% penicillin and streptomycin in a 37° C. incubator. 3T3 cells were treated with 500 nM actinomycin D in DMEM containing 0.5% FBS without antibiotics for the 0, 2, 4, 8, 16, or 24 hours. Cells were then washed with phosphate buffered saline (PBS). Floating cells were collected by centrifugation and combined with attached cells that were harvested by trypsinization. MLC20 phosphorylation was quantified be Western blotting with an anti-MLC20 antibody (FIG. 1). In short, the harvested cells were treated with ice cold 10% TCA, 10 mM DTT to precipitate the cellular proteins. The pellets were washed with acetone, dissolved in 9 M urea, 10 mM DTT, 20 mM Tris, pH 7.5 and separated using glycerol-urea polyacrylamide gel electrophoresis (PAGE). […] Protein bands were visualized with ECL reagent and the stoichiometry of phosphorylation (mol PO4/mol MLC20) was calculated as described (Obara et al., 1989, “Okadaic acid, a phosphatase inhibitor, produces a Ca2+ and calmodulin-independent contraction of lamb tracheal smooth muscle,” Pfluger's Archiv. 414: 134-138).

SMC = experiment: TUNEL staining of SMC; type: cell-based, pig
Description: Also, cells were treated with 50 μM z-VAD-fmk for 1 hour, 20 μM ML-7 for 4 hours or 50 μM z-VAD-fmk for 1 hours followed by 20 μM ML-7 for 4 hours (FIG. 5B). The cells were then fixed and stained with TUNEL reagent and DAPI.

[4] = 24 hrs, 10 μM Dex, 10 μM ActD, 100 μM Chx, 2 μM Cam, 100 μM Eto

For `C=C1[C@@H](C)[C@H]2[C@H](Cc3ccccc3)NC(=O)[C@]23[C@H](OC(C)=O)/C=C/[C@@](C)(O)C(=O)[C@@H](C)C/C=C/[C@H]3[C@@H]1O` [cytochalasin D], the MLC20 phosphorylation (MLC20 phosphorylation [1]; 10 μM cytochalasin D overnight, vs untreated) was “significant decreases” and the cell death ([2]; SMC, 10 μM cytochalasin D overnight, vs untreated) was “significant increases”.

In the case of `CCCOc1ccc2c(c1)c1c3c(c4c5ccccc5n5c4c1n2[C@H]1C[C@](O)(C(=O)OC)[C@]5(C)O1)CNC3=O` (relative stereo) [KT5926, [(8R*,9S*,11S*)-(−)9-hydroxy-9-methoxycarbonyl-8-methyl-14-n-propoxy-2,3,9,10-tetrahydro-8,11-epoxy, 1H,8H, 11H-2,7b,11a-triazadibenzo [a,g]cycloocta [cde]trinden-1-one], the cell death (NIH 3T3 cells) is reported as “cell death, including genome digestion”.

`Cc1c2oc3c(C)ccc(C(=O)N[C@@H]4C(=O)N[C@H](C(C)C)C(=O)N5CCC[C@H]5C(=O)N(C)CC(=O)N(C)[C@@H](C(C)C)C(=O)O[C@@H]4C)c3nc-2c(C(=O)N[C@@H]2C(=O)N[C@H](C(C)C)C(=O)N3CCC[C@H]3C(=O)N(C)CC(=O)N(C)[C@@H](C(C)C)C(=O)O[C@@H]2C)c(N)c1=O` [actinomycin D] (I: T[dV]P[Sar][NMeV] / II: T[dV]P[Sar][NMeV]; ester I:1-I:C, II:1-II:C; linker I:N-II:N via Actinocin(9to1)) was tested, and the MLC20 phosphorylation (MLC20 phosphorylation [3]) was “initial increase in MLC20 phosphorylation that was followed by MLC20 dephosphorylation” and the MLC20 phosphorylation (MLC20 phosphorylation [1]; [4]) was “dephosphorylated”.

In the case of `COC(=O)C[C@H](NC(=O)[C@H](C)NC(=O)[C@@H](NC(=O)OCc1ccccc1)C(C)C)C(=O)CF` [z-VAD-fmk] (Cbz-Val-Ala-Asp(OMe)-CH2F), the “TUNEL positive nuclei in ML-7 treated cells” value (SMC; 50 μM z-VAD-fmk 1 hour then 20 μM ML-7 4 hours) is reported as “decreased the number of TUNEL positive nuclei”, the TUNEL positive nuclei (SMC; single agent: 50 μM z-VAD-fmk 1 hour or 20 μM ML-7 4 hours) is reported as “very few TUNEL positive nuclei” and the “number of apoptotic cells (FACS)” value ([2]; 50 μM z-VAD-fmk 1 hr then 20 μM ML-7 16 hours, vs ML-7 alone) is reported as “significant decrease”.

In the case of `CC[C@@]1(O)C(=O)OCc2c1cc1n(c2=O)Cc2cc3ccccc3nc2-1` [camptothecin], the MLC20 phosphorylation (MLC20 phosphorylation [1]; [4]) is reported as “dephosphorylated”.

In the case of `C[C@@H]1C[C@@H]([C@H](O)CC2CC(=O)NC(=O)C2)C(=O)[C@@H](C)C1` [cycloheximide], the MLC20 phosphorylation (MLC20 phosphorylation [1]; [4]) is reported as “dephosphorylated”.
